“Also recorded” adds a separate entry of the source.
How the values were obtained:
[1] = Cytotoxicity assay (Alamar Blue); assay type: cell-based; settings: human, HEK293 cells, 72 h exposure, mean ± SD, at least 3 independent experiments
Protocol: The HEK293 cell line was obtained from the ECACC (European Collection of Authenticated Cell Cultures, cat. 85120602, Salisbury, UK). The cells were grown in monolayer culture in Dulbecco’s Modified Eagle Medium (DMEM) (PanEco, Moscow, Russia) supplemented with 2 mM of L-glutamine, 1% penicillin/streptomycin (Capricorn Scientific, Ebsdorfergrund, Germany), and 10% heat-inactivated fetal bovine serum (HyClone, Cytiva, Pasching, Austria) in a humidified atmosphere of 5% CO2 and at 37 °C (Binder, Tuttlingen, Germany). For analysis, the HEK293 cells were seeded into a 96-well plate (Corning Incorporated, Corning, NY, USA) in 100 μL of complete culture medium at a final concentration of 1 × 10^4 cells/well and cultured for 24 h for proper attachment. Subsequently, the medium was removed, and cells were exposed to the test inhibitor with different concentrations for 72 h in 100 μL of fresh complete culture medium. The sensitivity of the cells to test inhibitor molecules was detected using the vital dye Alamar Blue (Invitrogen, Carlsbad, CA, USA). The Alamar Blue assay was performed according to the procedure described by O’Brien et al.. After incubation with test inhibitor molecules, 10 μL of Alamar Blue reagent was added to each well, cell culture plates were returned to a humidified incubator, and the fluorescence was read after 3 h. The plates were exposed to an excitation wavelength of 545 nm, and the emission at 600 nm was measured with the CLARIOstar Plus (BMG Labtech, Ortenberg, Germany, Software Version 5.70 R2). To determine corresponding 50% cellular cytotoxicity (CC50) values, a four-parameter sigmoidal fit curve model (GraphPad Prism 8 software) was used to measure the data.

E. coli MG1655 = assay: Growth curves of E. coli MG1655 with antibiotics, with or without LpxC inhibitors (antibiotic potentiation); assay type: cell-based, Escherichia coli; settings: for Activity: combined action together with the antibiotic, marking used for QSAR; for potentiation of kanamycin (sensitivity of cells): kanamycin 0.62 μM; for potentiation of kanamycin (sensitivity of cells) / potentiation of rifampicin (sensitivity of cells): inhibitor 50 or 100 µM; for potentiation of kanamycin (sensitivity of cells) / potentiating activity with nalidixic acid (growth inhibition) / potentiation of rifampicin (sensitivity of cells): OD600 growth curves; for potentiating activity with nalidixic acid (growth inhibition): nalidixic acid 17.22 μM, inhibitor 50–100 µM; for potentiation of rifampicin (sensitivity of cells): rifampicin 6.08 μM; on Activity: key: active (1); inactive (0)
Protocol: (§1) Escherichia coli strain MG1655 and Pseudomonas aeruginosa strain ATCC 27853 were obtained from the American Type Culture Collection (ATCC; Rockville, MD, USA). Subculturing and inoculum preparation were prepared according to the Clinical and Laboratory Standards Institute (CLSI) recommended method, M7-A9 [42], using MHA and MHB.
Growth curves were obtained with a Bioscreen C automated growth analysis system. Cultures of E. coli MG1655 were grown overnight at 37 °C, diluted 1:100 in fresh medium, inoculated into honeycomb wells in triplicate, and grown at 37 °C with maximum shaking using the platform of the Bioscreen C instrument. […] OD600 values were recorded automatically at specified times, and the means of the triplicate cultures were plotted.

P. aeruginosa ATCC 27853 = assay: MIC (broth microdilution) and growth curves of antibiotics in combination with 9c or 9d; assay type: cell-based, Pseudomonas aeruginosa; settings: for MIC of antibiotic alone: 24 h, broth microdilution
Protocol: as §1
Minimum inhibitory concentrations (MICs) for rifampicin and nalidixic acid were determined via the modified broth microdilution method in triplicate according to CLSI guidelines M7-A9 and M100-A30 [43]. The antibiotics were serially diluted twofold in 100 μL of MHB. The bacteria inoculum was 100 μL of a 1.0 × 10^6 CFU/mL dilution in MHB. MICs for antibiotics in the presence of 9c or 9d were determined with the same method.
MIC endpoints were read after 24 h of incubation with an iMark microplate absorbance reader (Bio-Rad, Hercules, CA, USA). Growth curves of P. aeruginosa ATCC 27853 in the presence of rifampicin/nalidixic acid and 9c/9d were obtained using a multifunction microplate reader, SuperMax 3100 (ShanghaiFlash, Shanghai, China). Cells were grown in triplicate at 37 °C with aeration.

| SMILES | melting point | CC50 at 72 h [1] | Activity (E. coli MG1655) | further results |
| --- | --- | --- | --- | --- |
| O=C(NO)c1cccc(-c2noc(-c3ccccc3F)n2)c1 [Compound 26] | 199.3 °C (dec.) | 21.7 ± 3.43 µM | 0 | – |
| Cc1cccc(-c2noc(CC(=O)NO)n2)c1 [Compound 9d] | 165.4 °C (dec.) | 176 ± 17.8 µM | 1 | potentiation of kanamycin (sensitivity of cells) (E. coli MG1655): greatest potentiating activity; potentiating activity with nalidixic acid (growth inhibition) (E. coli MG1655): greatest potentiating activity; potentiation of rifampicin (sensitivity of cells) (E. coli MG1655): greatest potentiating activity; bacteriostatic effect in the first 10 h of incubation (E. coli MG1655; with antibiotic, resumption of culture growth observed subsequently): powerful bacteriostatic effect; decrease of MIC of rifampicin (P. aeruginosa ATCC 27853; 25 μM of compound): inactive; reduction of MIC of nalidixic acid (P. aeruginosa ATCC 27853; 25 μM of compound): ineffective; MIC of rifampicin in the presence of compound (P. aeruginosa ATCC 27853; 50 μM of compound): 0.08 µM; reduction of MIC of nalidixic acid (P. aeruginosa ATCC 27853; 50 μM of compound): four times; reduction of MIC of rifampicin (P. aeruginosa ATCC 27853; 50 μM of compound): 64 times; time of growth inhibition in combination with nalidixic acid (P. aeruginosa ATCC 27853; 50 μM of compound + 2.15 μM nalidixic acid, growth curves): ≤ 8 h; MIC of rifampicin in the presence of compound (P. aeruginosa ATCC 27853; 100 μM of compound): 0.08 µM; decrease of MIC of nalidixic acid (P. aeruginosa ATCC 27853; 100 μM of compound): approximately eight-fold; reduction of MIC of rifampicin (P. aeruginosa ATCC 27853; 100 μM of compound): 64 times; MIC (P. aeruginosa ATCC 27853; Pseudomonas aeruginosa, ATCC27853, 100 μM of compound, read-out: MIC of nalidixic acid in the presence of compound): 2.15 µM; P. aeruginosa ATCC 27853 growth in combination with antibiotics (P. aeruginosa ATCC 27853; with nalidixic acid or rifampicin): significantly reduced; also recorded: best results |
| O=C(Cc1nc(-c2ccc(OC(F)(F)F)cc2)no1)NO [Compound 9b] | 177 °C (dec.) | 108 ± 23.9 µM | 0 | – |
| O=C(NO)c1cccc(-c2nc(-c3cc(F)c(F)c(F)c3)no2)c1 [Compound 14c] | 188.5 °C (dec.) | 4.53 ± 1.22 µM | 0 | – |
| Cc1cccc(-c2noc(C(=O)NO)n2)c1 [Compound 4d] | 106 °C (dec.) | 457 ± 18.2 µM | 0 | – |
| CO[C@H]1/C=C/O[C@@]2(C)Oc3c(C)c(O)c4c(O)c(c(/C=N/N5CCN(C)CC5)c(O)c4c3C2=O)NC(=O)/C(C)=C\C=C\[C@H](C)[C@H](O)[C@@H](C)[C@@H](O)[C@@H](C)[C@H](OC(C)=O)[C@@H]1C [rifampicin, reference compound] | – | – | – | MIC of antibiotic alone (P. aeruginosa ATCC 27853): 4.86 µM |
| COc1ccc(-c2noc(C(=O)NO)n2)cc1 [Compound 4e] | 144 °C (dec.) | > 250 µM | 0 | – |
| O=C(NO)c1nc(-c2ccc(OC(F)(F)F)cc2)no1 [Compound 4b] | 108.6 °C (dec.) | 380 ± 10.2 µM | 0 | – |
| O=C(Cc1nc(-c2c(F)cccc2F)no1)NO [Compound 9a] | 149.7 °C (dec.) | 188 ± 31.2 µM | 0 | – |
| CCn1cc(C(=O)O)c(=O)c2ccc(C)nc21 [nalidixic acid, reference compound] | – | – | – | MIC of antibiotic alone (P. aeruginosa ATCC 27853): 17.22 µM |
| O=C(NO)c1nc(-c2c(F)cccc2F)no1 [Compound 4a] | 117.4 °C (dec.) | > 500 µM | 0 | – |
| O=C(NO)c1nc(-c2cc(F)c(F)c(F)c2)no1 [Compound 4c] | 133.6 °C (dec.) | > 500 µM | 0 | – |
| O=C(NO)c1cccc(-c2nc(-c3ccc(OC(F)(F)F)cc3)no2)c1 [Compound 14b] | 191 °C (dec.) | 6.39 ± 1.32 µM | 0 | – |
| O=C(NO)c1nc(-c2ccc(I)cc2)no1 [Compound 4f] | 181.3 °C (dec.) | 367 ± 53.9 µM | 0 | – |

The next lines start with results.

| melting point | SMILES | CC50 at 72 h [1] | Activity (E. coli MG1655) | further results |
| --- | --- | --- | --- | --- |
| 174 °C (dec.) | O=C(Cc1noc(-c2ccc(Cl)cc2)n1)NO [Compound 23a] | 112 ± 18.6 µM | 1 | potentiation of kanamycin (sensitivity of cells) (E. coli MG1655): significantly increased the sensitivity; potentiating activity with nalidixic acid (growth inhibition) (E. coli MG1655): inhibited bacterial growth less effectively; also recorded: less effective; potentiation of rifampicin (sensitivity of cells) (E. coli MG1655): significantly increased the sensitivity |
| 120 °C (dec.) | O=C(CCc1nc(-c2ccc(OC(F)(F)F)cc2)no1)NO [Compound 17b] | 42.4 ± 4.58 µM | 0 | – |
| 146 °C (dec.) | O=C(Cc1noc(-c2cccc(Cl)c2)n1)NO [Compound 23c] | 143 ± 3.84 µM | 1 | potentiation of kanamycin (sensitivity of cells) (E. coli MG1655): significantly increased the sensitivity; potentiating activity with nalidixic acid (growth inhibition) (E. coli MG1655): inhibited bacterial growth less effectively; also recorded: less effective; potentiation of rifampicin (sensitivity of cells) (E. coli MG1655): significantly increased the sensitivity |
| 204.2 °C (dec.) | O=C(NO)c1cccc(-c2nc(-c3c(F)cccc3F)no2)c1 [Compound 14a] | 25.5 ± 3.11 µM | 0 | – |
| 236 °C (dec.) | O=C(NO)c1ccc(-c2nc(-c3ccc(OC(F)(F)F)cc3)no2)cc1 [Compound 14d] | 5.28 ± 1.05 µM | 0 | – |
| 259.6 °C (dec.) | Cc1cc(F)ccc1-c1nnc(C(=O)NO)o1 [Compound 30c, 5-(4-Fluoro-2-methylphenyl)-N-hydroxy-1,3,4-oxadiazole-2-carboxamide] | > 200 µM | 0 | – |
| 265.4 °C (dec.) | O=C(NO)c1ccc(-c2nc(-c3ccccc3)no2)cc1 [Compound 14e] | 15 ± 0.53 µM | 0 | – |
| 211.6 °C (dec.) | O=C(Cc1noc(-c2ccc(I)cc2)n1)NO [Compound 23b] | 169 ± 22.5 µM | 0 | – |
| 130.7 °C (dec.) | COc1ccc(-c2nnc(C(=O)NO)o2)cc1OC [Compound 30f, 5-(3,4-Dimethoxyphenyl)-N-hydroxy-1,3,4-oxadiazole-2-carboxamide] | 478 ± 50.5 µM | 0 | – |
| 99 °C (dec.) | O=C(CCc1nc(-c2c(F)cccc2F)no1)NO [Compound 17a] | 30.8 ± 3.71 µM | 0 | – |
| 184.4 °C (dec.) | O=C(NO)c1nnc(-c2ccc(I)cc2)o1 [Compound 30a, N-Hydroxy-5-(4-iodophenyl)-1,3,4-oxadiazole-2-carboxamide] | 62.2 ± 9.88 µM | 0 | – |
| 197.3 °C (dec.) | COc1ccc(-c2nnc(C(=O)NO)o2)c(OC)c1 [Compound 30d, 5-(2,4-Dimethoxyphenyl)-N-hydroxy-1,3,4-oxadiazole-2-carboxamide] | > 600 µM | 0 | – |
| 156.3 °C (dec.) | O=C(Cc1noc(-c2cccc(I)c2)n1)NO [Compound 23d] | 171 ± 22.9 µM | 0 | – |
| 122 °C (dec.) | O=C(CCc1nc(-c2cc(F)c(F)c(F)c2)no1)NO [Compound 17c] | 59.2 ± 7.27 µM | 0 | – |
| 274.9 °C (dec.) | O=C(NO)c1nnc(-c2cccc(I)c2)o1 [Compound 30b, N-Hydroxy-5-(3-iodophenyl)-1,3,4-oxadiazole-2-carboxamide] | > 200 µM | 1 | potentiation of kanamycin (sensitivity of cells) (E. coli MG1655): not to kanamycin; potentiating activity with nalidixic acid (growth inhibition) (E. coli MG1655): inhibited bacterial growth less effectively; also recorded: weak potentiating activity; potentiation of rifampicin (sensitivity of cells) (E. coli MG1655): significantly increased the sensitivity |
| 115.8 °C (dec.) | Cc1cccc(-c2noc(CCC(=O)NO)n2)c1 [Compound 17d] | 21.3 ± 2.53 µM | – | – |
| 166.7 °C (dec.) | COc1cccc(-c2nnc(C(=O)NO)o2)c1OC [Compound 30e, 5-(2,3-Dimethoxyphenyl)-N-hydroxy-1,3,4-oxadiazole-2-carboxamide] | 770 ± 58.4 µM | 0 | – |

Reference: paper PMC10779255, “Novel Hydroxamic Acids Containing Aryl-Substituted 1,2,4- or 1,3,4-Oxadiazole Backbones and an Investigation of Their Antibiotic Potentiation Activity” (International Journal of Molecular Sciences, 2023)
